Experimental findings from patent EP4711355A1, “CRYSTAL FORM OF LIPOPROTEIN COMPOUND AND PREPARATION METHOD THEREFOR” (Jiangsu Hengrui Pharmaceuticals Co., Ltd., priority 2023, dated 2024) are described below.

A short description of data set [1]: Long-term accelerated stability test (Test Example 3), sealed in aluminum foil bags. In kind it is physicochemical.
Data set [2] can be described thus: DVS hygroscopicity test (dynamic moisture sorption). In kind it is physicochemical. Particulars: at 80% RH; listed as hydrochloride crystal form e. Here is the method: DVS stands for dynamic moisture sorption: using the Surface Measurement Systems instrument, humidity started at 50% and the humidity range investigated was 0%-95% with a step of 10%. The judgment standard is that the mass change of each gradient dM/dT is ≤ 0.002%, TMAX is 360 min, and there are two cycles.

Counter-ions that a name gives are not always drawn.

With `O=C(O)[C@@H](Cc1cccc(CN(CCOc2cccc(C[C@H](C(=O)O)[C@H]3CCNC3)c2)Cc2cccc(C[C@H](C(=O)O)[C@H]3CCNC3)c2)c1)[C@H]1CCNC1` [hydrochloride (1:1) crystal form e, (2S)-3-(3-{[(2-{3-[(2S)-2-carboxyl-2-[(3R)-pyrrolidin-3-yl]ethyl]phenoxy}ethyl)({3-[(2S)-2-carboxyl-2-[(3R)-pyrrolidin-3-yl]ethyl]phenyl}methyl)amino]methyl}phenyl)-2-[(3R)-pyrrolidin-3-yl]propionic acid], the Crystal form entry in data set [1] (0 day) is reported as “Hydrochloride crystal form e”; in data set [1] (25°C-60%RH, 1 month), “Unchanged”; in data set [1] (25°C-60%RH, 3 months) it was “Unchanged”; in data set [1] (25°C-60%RH, 6 months), “Unchanged”; in data set [1] (25°C-60%RH, 7 days), “Unchanged”; in data set [1] (25°C-60%RH, 14 days), “Unchanged”. Besides, the Crystal form result was “Unchanged” in data set [1] (40°C-75%RH, 1 month); “Unchanged” in data set [1] (40°C-75%RH, 3 months); “Unchanged” in data set [1] (40°C-75%RH, 6 months); “Unchanged” in data set [1] (40°C-75%RH, 7 days); “Unchanged” in data set [1] (40°C-75%RH, 14 days). Further, the “Purity (%)” value in data set [1] (0 day) came out at 99.9%; in data set [1] (25°C-60%RH, 1 month), 99.9%; in data set [1] (25°C-60%RH, 3 months) it was 99.9%; in data set [1] (25°C-60%RH, 6 months) it was 99.9%; in data set [1] (25°C-60%RH, 7 days), 99.9%; in data set [1] (25°C-60%RH, 14 days), 99.9%. For the same compound, the “Purity (%)” value in data set [1] (40°C-75%RH, 1 month) is 99.9%; in data set [1] (40°C-75%RH, 3 months) it was 99.9%; in data set [1] (40°C-75%RH, 6 months), 99.9%; in data set [1] (40°C-75%RH, 7 days) it was 99.9%; in data set [1] (40°C-75%RH, 14 days), 99.9%. The physicochemical stability result in data set [1] (25°C/60%RH and 40°C/75%RH for 6 months) was “good”. Moreover, in data set [2], the “DVS hygroscopicity weight gain” value came to 18%.
